Measured values reported in PMC12775434, “Ultra-large virtual screening unveils potent agonists of the neuromodulatory orphan receptor GPR139” (Nature Communications, 2025).
Where “and” joins values, the source holds several entries; their conditions need not be identical. Identical values can stand only once.

Key:
Assay type in all cases: cell-based
[1] = molecular target: T1, human muscarinic acetylcholine M1 receptor (M1R) (Homo sapiens, UniProt P11229); assay: Ca2+ mobilization counter-screen in M1R-CHOk1 cells
T1 sequence (P11229 1-460): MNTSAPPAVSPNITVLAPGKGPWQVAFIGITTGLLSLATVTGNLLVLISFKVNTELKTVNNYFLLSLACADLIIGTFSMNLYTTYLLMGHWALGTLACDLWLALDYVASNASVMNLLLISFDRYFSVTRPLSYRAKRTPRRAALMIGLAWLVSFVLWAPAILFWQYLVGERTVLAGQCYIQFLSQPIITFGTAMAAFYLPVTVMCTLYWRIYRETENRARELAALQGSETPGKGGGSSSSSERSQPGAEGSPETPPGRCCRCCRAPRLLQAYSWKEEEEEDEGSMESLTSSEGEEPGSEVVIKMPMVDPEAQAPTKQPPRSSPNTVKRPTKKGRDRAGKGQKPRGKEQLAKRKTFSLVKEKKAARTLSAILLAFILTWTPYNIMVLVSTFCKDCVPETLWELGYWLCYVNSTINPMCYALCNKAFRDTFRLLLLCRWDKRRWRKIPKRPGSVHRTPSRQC
Outline: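 Intracellular calcium is tracked by Fluo-4 fluorescence at 37 °C in M1R-CHOk1 cells, with compounds dispensed automatically once baseline is taken. Buffer is HBSS with 20 mM HEPES, pH 7.4, plus 2.5 mM probenecid.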

[2] = molecular target: T2, GPR139 (Homo sapiens, UniProt Q6DWJ6); assay: Ca2+ mobilization assay, antagonist mode (EC80 800 nM Lundbeck Cmp 1a after 20 min preincubation), GPR139-CHOk1
T2 sequence (Q6DWJ6 1-353): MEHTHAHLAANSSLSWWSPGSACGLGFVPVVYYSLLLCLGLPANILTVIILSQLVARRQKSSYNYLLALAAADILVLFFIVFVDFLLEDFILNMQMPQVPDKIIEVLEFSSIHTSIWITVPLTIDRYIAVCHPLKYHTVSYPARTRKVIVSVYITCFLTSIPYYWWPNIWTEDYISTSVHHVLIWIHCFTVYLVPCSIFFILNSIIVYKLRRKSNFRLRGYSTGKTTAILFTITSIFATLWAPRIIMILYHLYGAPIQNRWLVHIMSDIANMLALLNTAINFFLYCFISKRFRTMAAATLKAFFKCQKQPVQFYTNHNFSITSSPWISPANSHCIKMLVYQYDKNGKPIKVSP
Outline: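 Fluo-4-loaded GPR139-CHOk1 cells in HEPES-buffered HBSS (pH 7.4, 2.5 mM probenecid) given test compounds at 10 µM, then after 20 min challenged with 800 nM Lundbeck Cmp 1a (EC80). Calcium fluorescence read at 37 °C, 485/525 nm.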

[3] = molecular target: T2, GPR139; assay: Ca2+ mobilization assay, agonist mode, stable GPR139-CHOk1 cell line; details: for EC50 / Emax: Supplementary Table 2, mean ± SEM; for EC50: read-out: pEC50 Ca2+ (converted); for Emax: normalized to Lundbeck Cmp 1a, read-out: Emax (%) Ca2+; for activation of GPR139 at three concentrations: 0.1, 1 and 10 µM, activity too low to reliably determine EC50
Outline: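 Agonist activity of compounds is assessed in stably transfected CHO-K1 cells using the calcium dye Fluo-4 at 37 °C in HEPES-buffered HBSS (pH 7.4). Efficacy is expressed relative to the reference agonist Lundbeck Cmp 1a, set as 100%.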

[4] = individual replicates (Supplementary Figure 5)
[5] = individual replicates (Supplementary Figure 4)
[6] = Agonist mode, individual replicates (Supplementary Figure 4)
[7] = log [Compound] M = -4.5, individual replicate columns
[8] = log [Compound] M = -5.0, individual replicate columns
[9] = log [Compound] M = -5.5, individual replicate columns
[10] = log [Compound] M = -6.0, individual replicate columns
[11] = log [Compound] M = -6.5, individual replicate columns
[12] = log [Compound] M = -7.0, individual replicate columns
[13] = log [Compound] M = -7.5, individual replicate columns
[14] = log [Compound] M = -8.0, individual replicate columns
[15] = log [Compound] M = -8.5, individual replicate columns
[16] = log [Compound] M = -9.0, individual replicate columns
[17] = individual replicates (Supplementary Figure 2)
[18] = individual replicates (Supplementary Figure 1)
[19] = 0.1 µM, individual replicates (Supplementary Figure 3)
[20] = 1 µM, individual replicates (Supplementary Figure 3)
[21] = 10 µM, individual replicates (Supplementary Figure 3)
[22] = Agonist mode, individual replicates (Supplementary Figure 1)
[23] = primary screen, 10 µM compound, agonist mode, three columns = independent experiments

| SMILES | Ca2+ signal (% of Carbachol) [1, 4] | Ca2+ signal (% of Cmp 1a) [2, 5] | Ca2+ signal (% of Cmp 1a) [3, 6] | EC50 [3] | Emax [3] | Ca2+ signal (% of Cmp 1a) [3, 7] | Ca2+ signal (% of Cmp 1a) [3, 8] | Ca2+ signal (% of Cmp 1a) [3, 9] | Ca2+ signal (% of Cmp 1a) [3, 10] | Ca2+ signal (% of Cmp 1a) [3, 11] | Ca2+ signal (% of Cmp 1a) [3, 12] | Ca2+ signal (% of Cmp 1a) [3, 13] | Ca2+ signal (% of Cmp 1a) [3, 14] | Ca2+ signal (% of Cmp 1a) [3, 15] | Ca2+ signal (% of Carbachol) [1, 17] | Ca2+ signal (% of Cmp 1a) [2, 18] | Ca2+ signal (% of Cmp 1a) [3, 19] | Ca2+ signal (% of Cmp 1a) [3, 20] | Ca2+ signal (% of Cmp 1a) [3, 21] | Ca2+ signal (% of Cmp 1a) [3, 22] | also measured |
| --- | --- | --- | --- | --- | --- | --- | --- | --- | --- | --- | --- | --- | --- | --- | --- | --- | --- | --- | --- | --- | --- |
| Cc1ccc(-c2nc(CC(=O)NC(C)c3ccccc3)no2)o1 (centres unmarked) [Compound 1.6, CC(C1=CC=CC=C1)NC(CC2=NOC(C3=CC=C(O3)C)=N2)=O] | -2 % of Carbachol and -10 % of Carbachol and 10 % of Carbachol | -5.33 % of Cmp 1a and -3.67 % of Cmp 1a and -16 % of Cmp 1a | 102 % of Cmp 1a and 114 % of Cmp 1a and 83 % of Cmp 1a | 158 nM | 112 ± 10% | 98 % of Cmp 1a and 103 % of Cmp 1a and 120 % of Cmp 1a | 89 % of Cmp 1a and 114 % of Cmp 1a and 105 % of Cmp 1a | 87 % of Cmp 1a and 107 % of Cmp 1a and 97 % of Cmp 1a | 70 % of Cmp 1a and 96 % of Cmp 1a and 81 % of Cmp 1a | 48 % of Cmp 1a and 70 % of Cmp 1a and 59 % of Cmp 1a | 17 % of Cmp 1a and 46 % of Cmp 1a and 43 % of Cmp 1a | -11 % of Cmp 1a and 21 % of Cmp 1a and 0 % of Cmp 1a | -16 % of Cmp 1a and -2 % of Cmp 1a and 1 % of Cmp 1a | -14 % of Cmp 1a and -8 % of Cmp 1a and -4 % of Cmp 1a |  |  |  |  |  |  | Ca2+ signal (% of Cmp 1a) [3, 16]: -22 % of Cmp 1a and -11 % of Cmp 1a and -20 % of Cmp 1a |
| C[C@H](NC(=O)CN(CC1CC1)C(=O)OC(C)(C)C)c1ccccc1 [Compound 10, C[C@H](NC(=O)CN(CC1CC1)C(=O)OC(C)(C)C)C=2C=CC=CC2] |  |  |  |  |  |  |  |  |  |  |  |  |  |  | 3.79 % of Carbachol and -10 % of Carbachol | 34.852 % of Cmp 1a and 42.0733 % of Cmp 1a and 46.5676 % of Cmp 1a | -1.5 % of Cmp 1a and 11.5 % of Cmp 1a | 2.4 % of Cmp 1a and 6.6 % of Cmp 1a | 39.5 % of Cmp 1a and 47.6 % of Cmp 1a | 58 % of Cmp 1a and 64 % of Cmp 1a and 72 % of Cmp 1a | activation of GPR139 at three concentrations [3]: concentration-dependent activation of GPR139; Ca2+ signal (% of Cmp 1a) [3, 23]: 58 % of Cmp 1a and 64 % of Cmp 1a and 72 % of Cmp 1a |
| CCc1nc(-c2nc(CC(=O)NC(C)c3ccccc3)no2)co1 (centres unmarked) [Compound 1.42, CCC1=NC(=CO1)C2=NC(CC(=O)NC(C)C=3C=CC=CC3)=NO2] | -1.26 % of Carbachol and 0.364 % of Carbachol and 1.26 % of Carbachol | 24 % of Cmp 1a and -10 % of Cmp 1a and 49 % of Cmp 1a | 76 % of Cmp 1a and 54 % of Cmp 1a and 64 % of Cmp 1a | 2000 nM | 78 ± 3% | 65 % of Cmp 1a and 81 % of Cmp 1a and 83 % of Cmp 1a | 44 % of Cmp 1a and 85 % of Cmp 1a and 76 % of Cmp 1a | 31 % of Cmp 1a and 75 % of Cmp 1a and 78 % of Cmp 1a | 9 % of Cmp 1a and 29 % of Cmp 1a and 21 % of Cmp 1a | -11 % of Cmp 1a and 1.56 % of Cmp 1a and 5.36 % of Cmp 1a | -2.41 % of Cmp 1a and 0.181 % of Cmp 1a and -5 % of Cmp 1a | -4.35 % of Cmp 1a and 3.27 % of Cmp 1a and -5.39 % of Cmp 1a | 5 % of Cmp 1a and -2.46 % of Cmp 1a and -2 % of Cmp 1a | -3 % of Cmp 1a and -4 % of Cmp 1a and 0.00955 % of Cmp 1a |  |  |  |  |  |  | Ca2+ signal (% of Cmp 1a) [3, 16]: -3.77 % of Cmp 1a and 10 % of Cmp 1a and 3.66 % of Cmp 1a |
| COCC(NC(=O)NC(C)c1ccc(F)cc1F)c1ccccc1 (centres unmarked) [Compound 6, COCC(NC(=O)NC(C)C=1C=CC(F)=CC1F)C=2C=CC=CC2] |  |  |  |  |  |  |  |  |  |  |  |  |  |  | -19 % of Carbachol and -0.753 % of Carbachol | 39.4931 % of Cmp 1a and 54.2036 % of Cmp 1a and 45.3276 % of Cmp 1a | -5.9 % of Cmp 1a and -10.9 % of Cmp 1a | 3.9 % of Cmp 1a and 9.9 % of Cmp 1a | 34.7 % of Cmp 1a and 32.7 % of Cmp 1a | 37 % of Cmp 1a and 42 % of Cmp 1a and 46 % of Cmp 1a | activation of GPR139 at three concentrations [3]: concentration-dependent activation of GPR139; Ca2+ signal (% of Cmp 1a) [3, 23]: 37 % of Cmp 1a and 42 % of Cmp 1a and 46 % of Cmp 1a |
| Cc1ccc(-c2nc(CC(=O)NC(C)c3ccccc3)no2)cc1C (centres unmarked) [Compound 1.20, CC(C1=CC=CC=C1)NC(CC2=NOC(C3=CC(C)=C(C)C=C3)=N2)=O] | -9 % of Carbachol and 12 % of Carbachol and 5 % of Carbachol | 4 % of Cmp 1a and 29 % of Cmp 1a and -0.333 % of Cmp 1a | 61 % of Cmp 1a and 51 % of Cmp 1a and 42 % of Cmp 1a | 1260 nM | 86 ± 11% | 64 % of Cmp 1a and 88 % of Cmp 1a and 90 % of Cmp 1a | 59 % of Cmp 1a and 87 % of Cmp 1a and 93 % of Cmp 1a | 48 % of Cmp 1a and 72 % of Cmp 1a and 74 % of Cmp 1a | 21 % of Cmp 1a and 45 % of Cmp 1a and 55 % of Cmp 1a | 9 % of Cmp 1a and 20 % of Cmp 1a and 28 % of Cmp 1a | 10 % of Cmp 1a and 20 % of Cmp 1a and 26 % of Cmp 1a | 10 % of Cmp 1a and -2 % of Cmp 1a and 9 % of Cmp 1a | 2 % of Cmp 1a and -1.33 % of Cmp 1a and 4.67 % of Cmp 1a | 7 % of Cmp 1a and -0.667 % of Cmp 1a and -6 % of Cmp 1a |  |  |  |  |  |  | Ca2+ signal (% of Cmp 1a) [3, 16]: 5 % of Cmp 1a and 1.33 % of Cmp 1a and 10 % of Cmp 1a |
| C[C@H](NC(=O)c1ccc(Cn2cc(Cl)cn2)o1)c1ccccc1 [Compound 8, C[C@H](NC(=O)C1=CC=C(CN2C=C(Cl)C=N2)O1)C=3C=CC=CC3] |  |  |  |  |  |  |  |  |  |  |  |  |  |  | -17 % of Carbachol and 6 % of Carbachol | 48.2832 % of Cmp 1a and 57.355 % of Cmp 1a and 45.2011 % of Cmp 1a | -2.0 % of Cmp 1a and -2.7 % of Cmp 1a | 3.0 % of Cmp 1a and 3.4 % of Cmp 1a | 24.4 % of Cmp 1a and 22.7 % of Cmp 1a | 47 % of Cmp 1a and 45 % of Cmp 1a and 51 % of Cmp 1a | Ca2+ signal (% of Cmp 1a) [3, 23]: 47 % of Cmp 1a and 45 % of Cmp 1a and 51 % of Cmp 1a |
| CN1CC(=O)N(c2cccc(NC(=O)C3Cc4ccccc43)c2)C1=O (centres unmarked) [Compound 9, CN1CC(=O)N(C1=O)C=2C=CC=C(NC(=O)C3CC=4C=CC=CC34)C2] |  |  |  |  |  |  |  |  |  |  |  |  |  |  | -9 % of Carbachol and -19 % of Carbachol | 73.6349 % of Cmp 1a and 73.421 % of Cmp 1a and 97.2374 % of Cmp 1a | -6.9 % of Cmp 1a and -8.5 % of Cmp 1a | -0.2 % of Cmp 1a and -5.2 % of Cmp 1a | 18.7 % of Cmp 1a and 14.1 % of Cmp 1a | 25 % of Cmp 1a and 10 % of Cmp 1a and 48 % of Cmp 1a |  |
